One data set deals with MDA-MB-231 tumor cells. The conditions noted are these: mouse, in vivo.
The test system of another data set is GIST-T1 cells. As to the kind of experiment: Cell viability assay (CellTiter-Glo, ATP-based). Also on record: species or system human. The conditions noted are these: biologically relevant concentrations. As for the experimental part:
0.25×10^4-1×10^4 GIST-T1 cells were seeded into each well in a 96-well plate. PVAC, EC, and PVA were added into each well or vehicle (deionized water) with subsequent incubation for 24 or 48 hours. CellTiter-Glo assay (Promega, MI, USA) is an ATP-based luminometric method that was performed according to protocol. In brief, cells were removed from incubator to allow adjust to room temperature after which 100 μL of room temperature CellTiter-Glo was added to each well. The plates were put on a shaker for 5-10 min. Cells rested for 5-10 min before measurement on an EnVision 2103 Multilabel Reader (Perkin Elmer, MA, USA).
A general note: ATP-based viability assays read luminescence as a measure of living cells.

Method for MDA-MB-231 tumor cells: Following injection of MDA-MB-231 cells into athymic nude mice the animals were monitored twice weekly recording weight, general health and tumor size. When the average tumor size was approximately 100 μL the animals were stratified into three groups of 12 mice per group based on tumor size. All three groups were subjected to 28 days of twice-weekly intra/peri tumoral injections at a volume of 100 μL per injection. One group served as a control group and received NaCl (vehicle) injections. The remaining two groups received different doses of PVAC, as described above. The animals were euthanized on Day 29 and the tumors were excised, weighed, and divided into two parts handled as described above.

Regarding “Poly[1-hydroxyethylene)-ran-(1-hydrazinecarboxylatoethylene)] [PVAC]”, in the data set on MDA-MB-231 tumor cells, the “Animals euthanized due to infections” value is “four”.

On to `CCOC(=O)NN` [EC, ethyl carbazate], for which the Cellular viability entry in the data set on GIST-T1 cells is listed as “did not reduce cellular viability”.

The values are drawn from patent US12383578B2, “Carbazate-activated polyvinyl alcohol (PVAC) as a polymer-based antitumoral agent” (CREMED AB (PUBL), priority 2019, dated 2025).
